{"source": "patent US20230085307A1", "about": "“PYRIDAZINONE COMPOUND AND HERBICIDE” (NISSAN CHEMICAL CORPORATION, priority 2019, published 2023)", "key": {"blackgrass [1]": {"tested_on": "blackgrass", "experiment": "Test Example 4: herbicidal effect by soil treatment (Table 19, symbol J)", "type": "in vivo, blackgrass (Alopecurus myosuroides)", "settings": "amount of applied herbicide 320 g/ha", "in_short": "(§1)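 Emulsion of test compound, water-diluted to predetermined amount, sprayed on soil after sowing (seed depth ~1.5 cm, sterilized diluvial soil). Greenhouse, 25–30° C. Effect graded at three weeks post-spray.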"}, "barnyard grass [2]": {"tested_on": "barnyard grass", "experiment": "Test Example 5: herbicidal effect by foliage application, plastic box (Table 20, symbol H)", "type": "in vivo, barnyard grass (Echinochloa crus-galli)", "settings": "foliage application, 320 g/ha, three weeks after application", "in_short": "(§2)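 Post-emergence foliar test in sterilized diluvial soil. Compound applied as water-diluted emulsion at a predetermined rate to 14-day-old plants; evaluation at three weeks.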"}, "lambsquarters [3]": {"tested_on": "lambsquarters", "experiment": "Test Example 5: herbicidal effect by foliage application, plastic box (Table 20, symbol O)", "type": "in vivo, lambsquarters (Chenopodium album)", "settings": "foliage application, 320 g/ha, three weeks after application", "in_short": "as §2"}, "redroot pigweed [4]": {"tested_on": "redroot pigweed", "experiment": "Test Example 4: herbicidal effect by soil treatment (Table 19, symbol N)", "type": "in vivo, redroot pigweed (Amaranthus retroflexus)", "settings": "amount of applied herbicide 320 g/ha", "in_short": "as §1"}, "barnyard grass [5]": {"tested_on": "barnyard grass", "experiment": "Test Example 4: herbicidal effect by soil treatment (Table 19, symbol H)", "type": "in vivo, barnyard grass (Echinochloa crus-galli)", "settings": "amount of applied herbicide 320 g/ha", "in_short": "as §1"}, "chickweed [6]": {"tested_on": "chickweed", "experiment": "Test Example 5: herbicidal effect by foliage application, plastic box (Table 20, symbol P)", "type": "in vivo, common chickweed (Stellaria media)", "settings": "foliage application, 320 g/ha, three weeks after application", "in_short": "as §2"}, "wild oat [7]": {"tested_on": "wild oat", "experiment": "Test Example 5: herbicidal effect by foliage application, plastic box (Table 20, symbol I)", "type": "in vivo, wild oat (Avena fatua)", "settings": "foliage application, 320 g/ha, three weeks after application", "in_short": "as §2"}, "Italian ryegrass [8]": {"tested_on": "Italian ryegrass", "experiment": "Test Example 5: herbicidal effect by foliage application, plastic box (Table 20, symbol K)", "type": "in vivo, Italian ryegrass (Lolium multiflorum)", "settings": "foliage application, 320 g/ha, three weeks after application", "in_short": "as §2"}, "persian speedwell [9]": {"tested_on": "persian speedwell", "experiment": "Test Example 5: herbicidal effect by foliage application, plastic box (Table 20, symbol R)", "type": "in vivo, Persian speedwell (Veronica persica)", "settings": "foliage application, 320 g/ha, three weeks after application", "in_short": "as §2"}, "southern crabgrass [10]": {"tested_on": "southern crabgrass", "experiment": "Test Example 5: herbicidal effect by foliage application, plastic box (Table 20, symbol F)", "type": "in vivo, southern crabgrass (Digitaria ciliaris)", "settings": "foliage application, 320 g/ha, three weeks after application", "in_short": "as §2"}, "Chinese sprangletop": {"tested_on": "Chinese sprangletop", "experiment": "Test Example 3: herbicidal effect by foliage application, Wagner pot (Table 18, symbol D)", "type": "in vivo, chinese sprangletop (Leptochloa chinensis)", "settings": "320 g/ha", "in_short": "(§3)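 Plants were sown in alluvial soil held under 0.1–0.5 cm standing water and grown 14 days in a greenhouse at 25–30 °C. An emulsifiable formulation, water-diluted to the set dose, was then sprayed onto the foliage, and effects were scored three weeks later using previously defined criteria.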"}, "false cleavers [11]": {"tested_on": "false cleavers", "experiment": "Test Example 5: herbicidal effect by foliage application, plastic box (Table 20, symbol Q)", "type": "in vivo, false cleavers (Galium spurium)", "settings": "foliage application, 320 g/ha, three weeks after application", "in_short": "as §2"}, "rice flat sedge": {"tested_on": "rice flat sedge", "experiment": "Test Example 3: herbicidal effect by foliage application, Wagner pot (Table 18, symbol E)", "type": "in vivo, rice flat sedge (Cyperus iria)", "settings": "320 g/ha", "in_short": "as §3"}, "wild oat [12]": {"tested_on": "wild oat", "experiment": "Test Example 4: herbicidal effect by soil treatment (Table 19, symbol I)", "type": "in vivo, wild oat (Avena fatua)", "settings": "amount of applied herbicide 320 g/ha", "in_short": "as §1"}, "green foxtail": {"tested_on": "green foxtail", "experiment": "Test Example 5: herbicidal effect by foliage application, plastic box (Table 20, symbol G)", "type": "in vivo, green foxtail (Setaria viridis)", "settings": "foliage application, 320 g/ha, three weeks after application", "in_short": "as §2"}, "redroot pigweed [13]": {"tested_on": "redroot pigweed", "experiment": "Test Example 5: herbicidal effect by foliage application, plastic box (Table 20, symbol N)", "type": "in vivo, redroot pigweed (Amaranthus retroflexus)", "settings": "foliage application, 320 g/ha, three weeks after application", "in_short": "as §2"}, "persian speedwell [14]": {"tested_on": "persian speedwell", "experiment": "Test Example 4: herbicidal effect by soil treatment (Table 19, symbol R)", "type": "in vivo, Persian speedwell (Veronica persica)", "settings": "amount of applied herbicide 320 g/ha", "in_short": "as §1"}, "lambsquarters [15]": {"tested_on": "lambsquarters", "experiment": "Test Example 4: herbicidal effect by soil treatment (Table 19, symbol O)", "type": "in vivo, lambsquarters (Chenopodium album)", "settings": "amount of applied herbicide 320 g/ha", "in_short": "as §1"}, "false cleavers [16]": {"tested_on": "false cleavers", "experiment": "Test Example 4: herbicidal effect by soil treatment (Table 19, symbol Q)", "type": "in vivo, false cleavers (Galium spurium)", "settings": "amount of applied herbicide 320 g/ha", "in_short": "as §1"}, "southern crabgrass [17]": {"tested_on": "southern crabgrass", "experiment": "Test Example 4: herbicidal effect by soil treatment (Table 19, symbol F)", "type": "in vivo, southern crabgrass (Digitaria ciliaris)", "settings": "amount of applied herbicide 320 g/ha", "in_short": "as §1"}, "Italian ryegrass [18]": {"tested_on": "Italian ryegrass", "experiment": "Test Example 4: herbicidal effect by soil treatment (Table 19, symbol K)", "type": "in vivo, Italian ryegrass (Lolium multiflorum)", "settings": "amount of applied herbicide 320 g/ha", "in_short": "as §1"}, "velvetleaf [19]": {"tested_on": "velvetleaf", "experiment": "Test Example 4: herbicidal effect by soil treatment (Table 19, symbol M)", "type": "in vivo, velvetleaf (Abutilon theophrasti)", "settings": "amount of applied herbicide 320 g/ha", "in_short": "as §1"}, "chickweed [20]": {"tested_on": "chickweed", "experiment": "Test Example 4: herbicidal effect by soil treatment (Table 19, symbol P)", "type": "in vivo, common chickweed (Stellaria media)", "settings": "amount of applied herbicide 320 g/ha", "in_short": "as §1"}, "velvetleaf [21]": {"tested_on": "velvetleaf", "experiment": "Test Example 5: herbicidal effect by foliage application, plastic box (Table 20, symbol M)", "type": "in vivo, velvetleaf (Abutilon theophrasti)", "settings": "foliage application, 320 g/ha, three weeks after application", "in_short": "as §2"}, "blackgrass [22]": {"tested_on": "blackgrass", "experiment": "Test Example 5: herbicidal effect by foliage application, plastic box (Table 20, symbol J)", "type": "in vivo, blackgrass (Alopecurus myosuroides)", "settings": "foliage application, 320 g/ha, three weeks after application", "in_short": "as §2"}, "windgrass [23]": {"tested_on": "windgrass", "experiment": "Test Example 4: herbicidal effect by soil treatment (Table 19, symbol L)", "type": "in vivo, windgrass (Apera spica-venti)", "settings": "amount of applied herbicide 320 g/ha", "in_short": "as §1"}, "barnyard grass [24]": {"tested_on": "barnyard grass", "experiment": "Test Example 3: herbicidal effect by foliage application, Wagner pot (Table 18, symbol H)", "type": "in vivo, barnyard grass (Echinochloa crus-galli)", "settings": "320 g/ha", "in_short": "as §3"}, "windgrass [25]": {"tested_on": "windgrass", "experiment": "Test Example 5: herbicidal effect by foliage application, plastic box (Table 20, symbol L)", "type": "in vivo, windgrass (Apera spica-venti)", "settings": "foliage application, 320 g/ha, three weeks after application", "in_short": "as §2"}}}
{"smiles": "CSc1ccc(-c2sc3ccccc3c2-c2c(O)c(C)nn(C)c2=O)cc1", "note": "[1-036]", "values": [{"measurement": "herbicidal effect rating, J: blackgrass", "setting": "blackgrass [1]", "value": "0 (Herbicidal rate of 5% or less (almost no effect))"}, {"measurement": "herbicidal effect grade, H: barnyard grass", "setting": "barnyard grass [2]", "value": "4 (Herbicidal rate of 70% or more and less than 90%)"}, {"measurement": "herbicidal effect grade, O: lambsquarters", "setting": "lambsquarters [3]", "value": "4 (Herbicidal rate of 70% or more and less than 90%)"}, {"measurement": "herbicidal effect rating, N: redroot pigweed", "setting": "redroot pigweed [4]", "value": "5 (Herbicidal rate of 90% or more (almost completely withered))"}, {"measurement": "herbicidal effect rating, H: barnyard grass", "setting": "barnyard grass [5]", "value": "4 (Herbicidal rate of 70% or more and less than 90%)"}, {"measurement": "herbicidal effect grade, P: chickweed", "setting": "chickweed [6]", "value": "5 (Herbicidal rate of 90% or more (almost completely withered))"}, {"measurement": "herbicidal effect grade, I: wild oat", "setting": "wild oat [7]", "value": "2 (Herbicidal rate of 20% or more and less than 40%)"}, {"measurement": "herbicidal effect grade, K: Italian ryegrass", "setting": "Italian ryegrass [8]", "value": "4 (Herbicidal rate of 70% or more and less than 90%)"}, {"measurement": "herbicidal effect grade, R: persian speedwell", "setting": "persian speedwell [9]", "value": "5 (Herbicidal rate of 90% or more (almost completely withered))"}, {"measurement": "herbicidal effect grade, F: southern crabgrass", "setting": "southern crabgrass [10]", "value": "0 (Herbicidal rate of 5% or less (almost no effect))"}, {"measurement": "herbicidal effect on D (Chinese sprangletop), rating 0-5", "setting": "Chinese sprangletop", "value": "3 (Herbicidal rate of 40% or more and less than 70%)"}, {"measurement": "herbicidal effect grade, Q: false cleavers", "setting": "false cleavers [11]", "value": "4 (Herbicidal rate of 70% or more and less than 90%)"}, {"measurement": "herbicidal effect on E (rice flat sedge), rating 0-5", "setting": "rice flat sedge", "value": "5 (Herbicidal rate of 90% or more (almost completely withered))"}, {"measurement": "herbicidal effect rating, I: wild oat", "setting": "wild oat [12]", "value": "0 (Herbicidal rate of 5% or less (almost no effect))"}, {"measurement": "herbicidal effect grade, G: green foxtail", "setting": "green foxtail", "value": "4 (Herbicidal rate of 70% or more and less than 90%)"}, {"measurement": "herbicidal effect grade, N: redroot pigweed", "setting": "redroot pigweed [13]", "value": "5 (Herbicidal rate of 90% or more (almost completely withered))"}, {"measurement": "herbicidal effect rating, R: persian speedwell", "setting": "persian speedwell [14]", "value": "5 (Herbicidal rate of 90% or more (almost completely withered))"}, {"measurement": "herbicidal effect rating, O: lambsquarters", "setting": "lambsquarters [15]", "value": "5 (Herbicidal rate of 90% or more (almost completely withered))"}, {"measurement": "herbicidal effect rating, Q: false cleavers", "setting": "false cleavers [16]", "value": "0 (Herbicidal rate of 5% or less (almost no effect))"}, {"measurement": "herbicidal effect rating, F: southern crabgrass", "setting": "southern crabgrass [17]", "value": "0 (Herbicidal rate of 5% or less (almost no effect))"}, {"measurement": "herbicidal effect rating, K: Italian ryegrass", "setting": "Italian ryegrass [18]", "value": "5 (Herbicidal rate of 90% or more (almost completely withered))"}, {"measurement": "herbicidal effect rating, M: velvetleaf", "setting": "velvetleaf [19]", "value": "2 (Herbicidal rate of 20% or more and less than 40%)"}, {"measurement": "herbicidal effect rating, P: chickweed", "setting": "chickweed [20]", "value": "5 (Herbicidal rate of 90% or more (almost completely withered))"}, {"measurement": "herbicidal effect grade, M: velvetleaf", "setting": "velvetleaf [21]", "value": "5 (Herbicidal rate of 90% or more (almost completely withered))"}, {"measurement": "herbicidal effect grade, J: blackgrass", "setting": "blackgrass [22]", "value": "4 (Herbicidal rate of 70% or more and less than 90%)"}, {"measurement": "herbicidal effect rating, L: windgrass", "setting": "windgrass [23]", "value": "0 (Herbicidal rate of 5% or less (almost no effect))"}, {"measurement": "herbicidal effect on H (barnyard grass), rating 0-5", "setting": "barnyard grass [24]", "value": "5 (Herbicidal rate of 90% or more (almost completely withered))"}, {"measurement": "herbicidal effect grade, L: windgrass", "setting": "windgrass [25]", "value": "3 (Herbicidal rate of 40% or more and less than 70%)"}]}
